This assay relates to MC4L2 mice tumor. The assay is described as follows: MC4L2 mice tumor treated with drug with or without electrostatic field, tumor followed by sonography. It is filed as in vivo. Particulars: for reduction in tumor volume: without electrostatic field.

“Also recorded” adds a separate entry of the source.

Method: Here, three injection periods of Cisplatin were carried out every 3 days for a group of mice having a MC4L2 mice tumor as an example of triple-positive breast cancer. About 20 mg/kg of Cisplatin was applied for a Control sample with a MC4L2 mice tumor without applying an electrostatic field. In each period, about 5 mg/kg of Cisplatin was applied for a sample mouse No. 1 with a MC4L2 mice tumor, and then followed by applying an electrostatic field with an intensity in a range of −60 V to −120 V according to exemplary method 100 or exemplary method 110, described hereinabove, utilizing a conductive patch similar to electrically conductive element 304 on mice skin near the MC4L2 tumor site, and applying direct current (DC) electrostatic field utilizing a Van de Graaff device.
All sonography images were taken after about 10 days of treatments, and all drug injections were done every about 3 days.

With `N.N.[Cl][Pt][Cl]` [Cisplatin], under “about 5 mg/kg Cisplatin per period, then DC electrostatic field -60 V to -120 V via conductive patch, three periods every 3 days”, the “tumor after treatment (sonography)” value is on record as “no observable trace of tumor; also recorded: removed completely”. Besides, the “reduction in tumor volume” value (about 20 mg/kg Cisplatin, injections every 3 days, sonography) is reported as “about 60%”.

As for `COc1cccc2c1C(=O)c1c(O)c3c(c(O)c1C2=O)C[C@@](O)(C(=O)CO)C[C@@H]3O[C@H]1C[C@H](N)[C@H](O)[C@H](C)O1` [Doxorubicin], the “tumor after treatment (sonography)” value (about 1 mg/kg Doxorubicin per period, then DC electrostatic field 60 V to 120 V via conductive patch, four periods every 3 days) is on record as “no observable trace of tumor; also recorded: removed completely”. Also, the “reduction in tumor volume” value (about 10 mg/kg Doxorubicin, sonography after about 10 days) was “about 75%”.

Values taken from patent publication US11911628B2, “Electrostatic drug delivery” (NANO HESGARSAZAN SALAMAT ARYA INCUBATION CENTER FOR MEDICAL …, priority 2019, dated 2024).
